Measured values published in patent EP2960339A1, “Method and kit for the identification of glycosyl transferase substrates” (Technische Universität München, priority 2014, dated 2015).

Assays:
Format in all cases: biochemical
VvGT14a [1] = target: T1, VvGT14a (Vitis vinifera, UniProt F6H0R6); assay: Enantioselectivity by chiral phase SPME-GC-MS after hydrolysis of the formed glucoside; settings: racemic substrate, prolonged incubation (24 h), aglycone liberated by hydrolysis
Description: (§1) To determine the enantioselectivity of VvGT14 and VvGT15 the enantiomeric ratio of glucosidically bound citronellol and linalool was determined by enantioselective GC-MS. Following the incubation, residual citronellol and linalool were completely removed by extraction with dichloromethane. Citronellyl ß-D-glucoside which remained in the aqueous phase was hydrolyzed by HCl (2 mL, 0.1 M, pH 1) for one hour at 100 °C to release citronellol (Skouroumounis and Sefton, 2000). In case of linalyl ß-D-glucoside an enzymatic hydrolysis (AR 2000, citric acid buffer pH 4, 24 h) was applied due to the instability of linalool in acid solutions (Williams et al., 1982). […] After hydrolysis, citronellol and linalool were analyzed by SPME-GC-MS as described above.
(§2) GC-MS analysis was performed with a Varian GC-450 coupled to a Varian MS-240 ion-trap employing a Phenomenex Zebron ZB-WAXplus column (30 m x 0.25 mm x 0.25 µm, Aschaffenburg, Germany). Helium flow rate was 1 mL/min. The analysis was carried out in split mode (liquid injections) or splitless mode (SPME measurements) with 220 °C injector temperature. EI (electron impact ionization)-MS spectra were recorded from m/z 40 to 300 (ionization energy 70 eV; trap temperature 170 °C). The oven temperature program was 60 °C (3 min), 10 °C/min up to 250 °C (5 min). In case of SPME measurements, liberated aglycones were isolated for 10 min at 60°C using a fiber coated with a 85 µm film of polyacrylate (SUPELCO, Bellefonte, USA). After extraction the SPME fiber was desorbed for 10 min at 250°C in the injection port of the GC-MS system and the column oven program was carried out as described above. Enantioselective GC-MS analysis was performed with a Varian GC-450 coupled to a Varian MS-240 ion-trap. The column was a DiAcß (heptakis-(2,3-di-O-acetyl-6-O-tert.-butyldimethylsilyl)-ß-cyclodextrin), 26 m x 0.32 mm i.d. with a 0.1 µm film. […] GC-MS measurements were recorded in full scan mode. Selected ion monitoring (SIM) mode was used for quantification.

VvGT15a [2] = target: T2, VvGT15a (Vitis vinifera, UniProt F6GUW0); assay: as above; settings: racemic substrate, prolonged incubation (24 h), aglycone liberated by acid hydrolysis
Description: as §1, §2

VvGT14a [3] = target: T1, VvGT14a; settings: for Km: monoterpenols at constant UDP-glucose […], UDP-glucose at fixed geraniol 100 µM, Tris-HCl pH 8.5, 30 °C; for kcat: pH 8.5
VvGT14a [4] = target: T1, VvGT14a; assay: Activity based profiling using a physiologic aglycone library (radio-TLC, GC-MS); settings: Figure 7
Description: For the preparation of aglycone extracts 50 g (fresh weight) grape skins or 4 g (fresh weight) inflorescences of Gewurztraminer Gm 11-18 were ground to a fine powder in liquid nitrogen. The isolation of glycosides was carried out as described above (see metabolite analysis). The methanolic fraction, which was obtained after SPE, was enzymatically hydrolysed. Therefore, the dried sample was dissolved in citric-acid buffer (0.1 M, pH 4), 50 mg AR 2000 (an enzyme preparation with glucosidase activity prepared from Aspergillus niger; DSM Food Specialties Beverage Ingredients, Delft, Netherlands) was added and incubated for 24 h with exclusion of light. The liberated aglycones were extracted by 20 mL methyl-tert-butyl ether and the organic phase was reduced to 1000µL using a gentle stream of nitrogen.
Aliquots of this aglycone extract were incubated with UDP-glucose and various VvGT-enzymes. Optimum conditions at 30 °C for 24 hours were applied. Each solution contained 100 µL purified enzyme, 100-150 µL Tris-HCl buffer (100 mM, pH7.5 or 8.5, 10 mM 2-mercaptoethanol), 37 pmol UDP-[^14C]glucose (0.01 µCi) and 50-100 µL extract (dissolved in methyl-tert-butylether). The buffer was mixed with the extract and the organic solvent was gently vaporized with nitrogen. The missing volume was adjusted with buffer before the enzyme was added. The reaction was stopped by adding 1 µL 24% trichloroacetic acid and extracted with 500 µL ethyl acetate. After termination of the reaction free aglycones, which were not converted by VvGT14 and VvGT15, were measured via SPME-(Solid Phase Microextraction)-GC-MS. These residual, free aglycones were completely removed by extraction with dichloromethane. Enzymatically formed glucosides were extracted by ethyl acetate, which was removed under nitrogen. The residue was dissolved in methanol and analyzed by LC-MS to detect the generated monoterpenol glucosides. Enzymatic hydrolysis of the glucosides was performed using AR 2000 and 2 mL citric-acid-buffer. After hydrolysis, a 100 µL aliquot was used to detect volatile aglycones via SPME-GC-MS. The remaining solution was extracted with methyl-tert-butyl ether and reduced under nitrogen to approximately 200 µL. One µL were measured by GC-MS via liquid injection.
Assays containing UDP-[^14C]glucose and aglycone libraries or substrates were performed as described above and subsequently extracted with 500 µL ethyl acetate. The organic solvent was vaporized and the pellet was re-suspended in 10 µL methanol and was applied on Silica Gel 60 F254 plates (Merck, Darmstadt, Germany). The dried plates were developed in a solvent system chloroform:acetic acid:water (50/45/5, v:v:v). Plates were dried and analyzed by digital autoradiograph (digital autoradiograph, EG&G Berthold, Wildbad, Germany).
An aglycone library of the two tissues was obtained by enzymatic hydrolysis of the glycosides followed by liquid-liquid extraction of the released alcohols and acids. […] The formed glycosides were separated by thin layer chromatography (TLC) and visualized by radiodetection whereas identification could be achieved by LC-MS and NMR analysis and, after hydrolysis, by GC-MS and LC-MS (Figure 6).

VvGT14a [5] = target: T1, VvGT14a; assay: Substrate screening, radiochemical activity assay with UDP-[14C]glucose; settings: for conversion of putative substrate (in words): substrate screening, Figure 3
Description: (§3) In the initial screening, each reaction mixture (200 µL in total) contained Tris-HCl buffer (100 mM, pH 8, 10 mM 2-mercaptoethanol), 37 pmol UDP-[^14C]glucose (0.01 µCi, Biotrend, Köln, Germany), substrate (50 µL of a 1 mg/mL stock solution) and purified protein (0.5-0.8 µg/µL). The reaction mixture was incubated at 30 °C for 18.5 hours. The assays were stopped by adding 1 µL 24% trichloroacetic acid and extracted with 500 µL water-saturated 1-butanol. The organic phase was mixed with 2 mL Pro Flow P+ cocktail (Meridian Biotechnologies Ltd., Epsom, UK) and radioactivity was determined by liquid scintillation counting (LSC, Tri-Carb 2800TR, Perkin Elmer, Waltham MA, USA). Additionally, negative controls without substrate were performed.
(§4) After determining the optimal conditions for the best substrate of each gene, the substrate screening was repeated under these conditions.
(§5) The alleles of VvGT14a-c, 15a-c and 16 were isolated from V. vinifera cultivars and cloned in the expression vector pGEX-4T-1. The recombinant proteins were expressed with an N-terminal GST-tag, affinity purified and verified by SDS-PAGE and Western Blot using GST-specific antibody. Enzyme activity studies were performed with UDP-[^14C]glucose and various putative substrates (terpenols, flavonoids and different mono-alcohols) that are known to be glycosidically bound and present in grapes (Gunata et al., 1988).

VvGT15c = VvGT15c (Vitis vinifera, UniProt F6GUW0); assay: as above
Description: as §3, §4, §5

VvGT16 = VvGT16 (Vitis vinifera, UniProt F6HTJ4); assay: as above; settings: substrate screening, Figure 3
Description: as §3, §4, §5

VvGT15a [6] = target: T2, VvGT15a; assay: as above; settings: substrate screening, Figure 3
Description: as §3, §4, §5

VvGT15b = VvGT15b (Vitis vinifera, UniProt F6GUW0); assay: as above; settings: substrate screening, Figure 3
Description: as §3, §4, §5

[7] = citronellol enantiomers, Figure 12, highest level of extractable radioactivity = 100 %

T1 sequence (F6H0R6 entry or part of it): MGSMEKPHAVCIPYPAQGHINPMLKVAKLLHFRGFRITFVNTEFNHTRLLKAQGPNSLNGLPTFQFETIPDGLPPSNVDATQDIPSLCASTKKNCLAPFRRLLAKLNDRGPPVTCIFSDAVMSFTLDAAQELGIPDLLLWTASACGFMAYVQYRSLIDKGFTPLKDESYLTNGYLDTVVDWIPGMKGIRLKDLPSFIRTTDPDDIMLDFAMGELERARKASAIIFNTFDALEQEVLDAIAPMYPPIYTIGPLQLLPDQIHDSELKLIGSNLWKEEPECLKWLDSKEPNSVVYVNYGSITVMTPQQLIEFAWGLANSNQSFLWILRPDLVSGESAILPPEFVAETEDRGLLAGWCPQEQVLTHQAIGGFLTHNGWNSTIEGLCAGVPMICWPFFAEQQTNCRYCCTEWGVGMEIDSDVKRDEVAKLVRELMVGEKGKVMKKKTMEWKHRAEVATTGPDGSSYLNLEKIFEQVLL
Sequence of VvGT15c (F6GUW0 entry or part of it): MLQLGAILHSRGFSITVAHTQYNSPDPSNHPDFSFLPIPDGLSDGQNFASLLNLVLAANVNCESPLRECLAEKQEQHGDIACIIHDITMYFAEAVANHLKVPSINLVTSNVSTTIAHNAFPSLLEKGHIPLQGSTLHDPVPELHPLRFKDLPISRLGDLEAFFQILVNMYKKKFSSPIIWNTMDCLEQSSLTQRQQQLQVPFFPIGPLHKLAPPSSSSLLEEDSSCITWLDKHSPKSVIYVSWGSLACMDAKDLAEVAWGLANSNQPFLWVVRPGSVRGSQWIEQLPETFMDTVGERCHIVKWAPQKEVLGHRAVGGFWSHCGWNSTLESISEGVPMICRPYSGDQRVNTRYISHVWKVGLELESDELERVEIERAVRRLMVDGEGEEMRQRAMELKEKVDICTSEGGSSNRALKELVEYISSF
T2 sequence (F6GUW0 entry or part of it): as above
Sequence of VvGT15b (F6GUW0 entry or part of it): as above
Sequence of VvGT16 (F6HTJ4 entry or part of it): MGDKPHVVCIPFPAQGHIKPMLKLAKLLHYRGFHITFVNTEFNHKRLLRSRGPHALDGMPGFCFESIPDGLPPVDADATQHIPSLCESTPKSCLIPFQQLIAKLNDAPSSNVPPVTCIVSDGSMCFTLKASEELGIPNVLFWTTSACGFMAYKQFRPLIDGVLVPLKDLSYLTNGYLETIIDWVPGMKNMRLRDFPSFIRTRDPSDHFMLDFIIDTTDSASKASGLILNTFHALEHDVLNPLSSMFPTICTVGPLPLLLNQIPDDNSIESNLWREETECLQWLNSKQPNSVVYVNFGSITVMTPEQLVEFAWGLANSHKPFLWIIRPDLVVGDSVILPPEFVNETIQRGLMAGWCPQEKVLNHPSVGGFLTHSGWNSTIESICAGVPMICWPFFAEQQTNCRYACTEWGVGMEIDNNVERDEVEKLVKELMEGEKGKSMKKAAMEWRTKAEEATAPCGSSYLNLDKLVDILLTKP

Row | SMILES | enantiomeric preference (in words) (VvGT14a [1]) | enantiomeric preference (in words) (VvGT15a [2]) | Km (VvGT14a [3]) [µM] | kcat (VvGT14a [3]) [s⁻¹] | aglycone liberated by enzymatic hydrolysis of the glucosides formed from the grape skin aglycone library (in words) (VvGT14a [4]) | relative specific activity (VvGT14a [5]; [7]) [%] | conversion of putative substrate (in words) (VvGT14a [5]) | relative specific activity (VvGT15c; [7]) [%] | conversion of putative substrate (in words) (VvGT15c; substrate screening, Figure 3) | conversion of putative substrate (in words) (VvGT16) | conversion of putative substrate (in words) (VvGT15a [6]) | conversion of putative substrate (in words) (VvGT15b)
1 | CC(C)=CCCC(C)CCO (racemic) [citronellol (rac), (R,S)-3,7-dimethyl-6-octen-1-ol] | no enantio-discrimination | no enantio-discrimination | 9 ± 0.3 | 0.02 | remarkable quantities | 100 | preferred | 100 | glucosylated primarily | transformed | glucosylated primarily | glucosylated primarily
2 | C=CC(C)(O)CCC=C(C)C (racemic) [linalool (rac), (R,S)-3,7-dimethyl-1,6-octadien-3-ol] | slight enrichment of the R-enantiomer |  | 47 ± 0.1 | 0.0003 | remarkable quantities |  | catalytic activity |  |  |  |  | 
